Assay results: US20090175799A1, “COLORED OR COLORABLE TOPICAL COMPOSITION FOAM” (priority 2006, published 2009)

Source text: In one or more embodiments, the foamable composition includes a potent solvent, in addition to or in place of one of the hydrophobic solvents, polar solvents or emollients of the composition. A potent solvent is a solvent other than mineral oil that solubilizes a specific active agent substantially better than a hydrocarbon solvent such as mineral oil or petrolatum.

SMILES | solubility in glycofurol | solubility in mineral oil [%] | solubility in dimethyl isosorbide | solubility in propylene glycol | solubility in polyethylene glycol 400 (PEG 400)
CCCCC(=O)O[C@]1(C(=O)CO)[C@@H](C)C[C@H]2[C@@H]3CCC4=CC(=O)C=C[C@]4(C)[C@@]3(F)[C@@H](O)C[C@@]21C [Betamethasone valerate] | more than 1% | < 0.01 |  |  | 
CCCC(=O)O[C@]1(C(=O)CO)CC[C@H]2[C@@H]3CCC4=CC(=O)CC[C@]4(C)[C@H]3[C@@H](O)C[C@@]21C [Hydrocortisone butyrate] | more than 1% | < 0.01 |  |  | 
CC(=O)N1CCN(c2ccc(OCC3COC(Cn4ccnc4)(c4ccc(Cl)cc4Cl)O3)cc2)CC1 (centres unmarked) [Ketoconazole] | more than 1% | < 0.01 | more than 1% | more than 1% | 
Cc1cnc(NC(=O)C2=C(O)c3ccccc3S(=O)(=O)N2C)s1 [Meloxicam] |  | < 0.001 |  |  | 
Cc1ncc([N+](=O)[O-])n1CCO [Metronidazole] |  | < 0.01 | more than 1% |  | 
C/C(=C\C(=O)OCCCCCCCCC(=O)O)C[C@@H]1OC[C@H](C[C@@H]2O[C@H]2[C@@H](C)[C@H](C)O)[C@@H](O)[C@H]1O [Mupirocin] | more than 1% | < 0.01 | more than 1% | more than 1% | more than 1%
CC(=O)[C@H]1CC[C@H]2[C@@H]3CCC4=CC(=O)CC[C@]4(C)[C@H]3CC[C@]12C [Progesterone] |  | < 0.001 |  |  | 
